Data reported in US7358074B2, “Human phosphatase RET31, and variants thereof” (Bristol-Myers Squibb Company, priority 2000, dated 2008).
Where a chain is given by its changes, count along the chain named. Entries after “also recorded” stand apart in the source; their conditions may differ.

Key:
[1] = system: RET31; experiment: para-nitrophenylphosphate (pNPP) phosphatase activity assay of purified RET31-GST fusion proteins; format: biochemical, human
Protocol: The bars represent the average of triplicate determinations, and the standard deviations are as shown. Each protein preparation was assayed in the absence and presence of 2 mM orthovanadate (”-van”). […] The phosphatase assays were performed as described in Example 57 herein.
In addition to assaying the full-length RET31 polypeptide (SEQ ID NO:109), a C-terminal deletion of RET31 was also assayed corresponding to amino acids M1 to T302 of SEQ ID NO:109).

[2] = system: human lung fibroblasts; experiment: human lung fibroblast proliferation assay, Alamar Blue; format: cell-based; conditions: 3 days in basal medium, expected (should show)
Protocol: Human lung fibroblasts are obtained from Clonetics (San Diego, Calif.) and maintained in growth media from Clonetics. Dermal microvascular endothelial cells are obtained from Cell Applications (San Diego, Calif.). For proliferation assays, the human lung fibroblasts and dermal microvascular endothelial cells can be cultured at 5,000 cells/well in a 96-well plate for one day in growth medium. The cells are then incubated for one day in 0.1% BSA basal medium. After replacing the medium with fresh 0.1% BSA medium, the cells are incubated with the test proteins for 3 days. Alamar Blue (Alamar Biosciences, Sacramento, Calif.) is added to each well to a final concentration of 10%. The cells are incubated for 4 hr. Cell viability is measured by reading in a CytoFluor fluorescence reader. For the PGE2 assays, the human lung fibroblasts are cultured at 5,000 cells/well in a 96-well plate for one day. […]

[3] = molecular target: T1, M1 to T302 C-terminal RET31 (Homo sapiens, UniProt Q9BY84, I6V/M5I/N284S); experiment: phosphatase activity assay, hydrolysis of para-nitrophenylphosphate (pNPP); format: biochemical; conditions: 2 mM orthovanadate; pNPP substrate; FIG. 36
T1 construct: made in house
T1 sequence (Q9BY84 1-302 M5I/I6V/N284S): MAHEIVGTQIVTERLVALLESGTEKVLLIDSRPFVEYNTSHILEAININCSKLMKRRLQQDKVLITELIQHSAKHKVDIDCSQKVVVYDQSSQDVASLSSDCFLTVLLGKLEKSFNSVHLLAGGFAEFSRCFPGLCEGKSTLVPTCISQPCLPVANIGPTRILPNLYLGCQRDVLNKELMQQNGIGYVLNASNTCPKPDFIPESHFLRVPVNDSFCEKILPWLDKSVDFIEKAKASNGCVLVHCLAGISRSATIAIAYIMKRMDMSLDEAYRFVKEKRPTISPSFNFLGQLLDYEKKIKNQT
Protocol: (§1) The phosphatase activity for the full-length RET31 and the M1 to T302 C-terminal RET31 GST fusion proteins were measured by assaying the ability of the proteins to hydrolyze para-nitrophenylphosphate, a compound known to be a substrate for phosphatases, as described in Krejsa, C. et al., J. Biol. Chem. Vol. 272, p. 11541-11549, 1997 (which is hereby incorporated in its entirety herein). The proteins are incubated with para-nitrophenylphosphate in a solution containing 10 mM imidazole, pH 7.0, 1 mM EDTA, 2 mM dithiothreitol, and 5 μg/ml BSA for 2 hours with and without sodium orthovanadate (Fisher) prepared in distilled water. The progress of the phosphatase reaction in a 96-well format was monitored by the OD405 nm on a plate reader (Molecular Devices) at 10-minute intervals in the kinetic mode.
(§2) The RET31-GST full length (FL), M1 to T302 C-terminal RET31-GST (trunc), or GST alone were purified and assayed for cleavage of para-nitrophenylphosphate (pNPP). The bars represent the average of triplicate determinations, and the standard deviations are as shown. Each protein preparation was assayed in the absence and presence of 2 mM of the phosphatase inhibitor orthovanadate. In addition, the full length and truncated protein phosphatase activity was blocked by the phosphatase inhibitor vanadate, as shown.

[4] = molecular target: T2, full-length RET31 (Homo sapiens, UniProt Q9BY84, C584R/N284S/T302A); experiment: as above; format: biochemical; conditions: 2 mM orthovanadate; pNPP substrate; FIG. 36
T2 construct: made in house
T2 sequence (Q9BY84 with tags, fused parts or gaps N284S/T302A/C584R): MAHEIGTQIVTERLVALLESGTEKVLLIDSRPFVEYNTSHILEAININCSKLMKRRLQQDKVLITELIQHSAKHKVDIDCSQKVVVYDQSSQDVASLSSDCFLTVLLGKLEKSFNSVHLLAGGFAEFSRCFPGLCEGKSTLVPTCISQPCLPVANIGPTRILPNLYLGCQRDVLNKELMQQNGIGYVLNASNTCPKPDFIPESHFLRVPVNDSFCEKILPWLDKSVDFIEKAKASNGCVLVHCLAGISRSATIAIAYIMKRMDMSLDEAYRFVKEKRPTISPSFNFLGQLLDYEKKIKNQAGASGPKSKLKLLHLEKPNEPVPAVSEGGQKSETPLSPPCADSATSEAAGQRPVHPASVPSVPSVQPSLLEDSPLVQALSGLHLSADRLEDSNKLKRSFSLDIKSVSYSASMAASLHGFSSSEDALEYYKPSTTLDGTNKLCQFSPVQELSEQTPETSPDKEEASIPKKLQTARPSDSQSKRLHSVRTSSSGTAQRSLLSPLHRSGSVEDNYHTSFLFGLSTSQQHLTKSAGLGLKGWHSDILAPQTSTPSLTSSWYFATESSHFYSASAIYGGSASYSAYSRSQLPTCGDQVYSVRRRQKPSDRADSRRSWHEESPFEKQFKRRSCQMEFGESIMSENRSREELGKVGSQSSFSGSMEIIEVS
Protocol: as §1, §2

## [O]=[V]([O-])([O-])[O-] [vanadate]
[1]; 2 mM orthovanadate, full-length and M1 to T302 RET31-GST
  inhibition of RET31 phosphatase activity: blocked; also recorded: specifically inhibited

## FGF-2: FGF-2 (basic FGF), comparison growth factor
[2]
  concentration showing stimulation of growth of fibroblasts: 10 to 2500 ng/mL

## [Na+].[Na+].[Na+].[O]=[V]([O-])([O-])[O-] [orthovanadate, sodium orthovanadate]
[3]
  effect of phosphatase inhibitor on phosphatase activity: blocked
[4]
  effect of phosphatase inhibitor on phosphatase activity: blocked

B1: M1 to T302 RET31 C-terminal deletion mutant: C-terminal deletion of RET31 corresponding to amino acids M1 to T302 of SEQ ID NO:109, GST fusion (protein, listed as Homo sapiens)
chain: T1 sequence (Q9BY84 1-302 M5I/I6V/N284S) with I5M, V6I, M180I, N193Y, S284N
modifications: GST fusion partner lacks entry
[1]; pNPP substrate, GST fusion proteins
  increase in phosphatase activity relative to the full-length RET31 polypeptide: five fold increase
[1]; purified GST fusion protein, pNPP substrate, compared to purified GST alone
  phosphatase activity via cleavage of the NPP substrate: demonstrated phosphatase activity
